Laboratory results as given in patent US6339103B1, “Fungicides” (Aventis CropScience UK Limited, priority 1998, dated 2002).

Test system: Plasmopara viticola
Experiment: Vine downy mildew disease control, foliar spray on vines
Format: in vivo
Conditions: aqueous solution sprayed onto vines to run off, then inoculated with 100,000 spores per ml, compared with untreated plants
Procedure: Aqueous solutions of the compound of Example 1 were sprayed at various concentrations onto vines to run off using a hand-sprayer. Plants were then inoculated by hand spraying with a spore suspension of 100,000 spores per ml of Plasmopara viticola. For the purposes of comparison the vines were sprayed also with the commercially available propamocarb hydrochloride.
Plants were assessed for degree of disease control compared with untreated plants.

Row | SMILES | % Control (rate 400 ppm) [%] | % Control (rate 800 ppm) [%]
1 | CCCOC(=O)NCCCN(C)C.CCO[PH](=O)O [Compound of invention, dimethyl-[3-(propoxycarbonylamino)propyl]ammonium O-ethylphosphonate] | 27.6 | 81.5
2 | CCCOC(=O)NCCCN(C)C.Cl [propamocarb hydrochloride, propyl 3-(dimethylamino)propylcarbamate hydrochloride] | 4.2 | 14.6
